# Test results reported in ChEMBL document CHEMBL1134855, “Synthesis and hypoglycemic evaluation of substituted pyrazole-4-carboxylic acids” (2002).
# Assays:
# Format in all cases: functional
# Rattus norvegicus [1] = assay: Evolution of glycemia 2 hr after first administration at the dose of 200 mg/kg in rat
# Rattus norvegicus [2] = assay: Evolution of glycemia 2 hr after first administration at the dose of 20 mg/kg in rat
# Rattus norvegicus [3] = assay: Evolution of glycemia 2 hr after the last administration for 4 days chronic treatment at the dose of 200 mg/kg in rat
# Rattus norvegicus [4] = assay: Evolution of glycemia 2 hr after the last administration for 4 days chronic treatment at the dose of 20 mg/kg in rat
SMILES,Glyceamia evolution (Rattus norvegicus [1]),Glyceamia evolution (Rattus norvegicus [2]),Glyceamia evolution (Rattus norvegicus [3]),Glyceamia evolution (Rattus norvegicus [4])
O=C(O)c1c[nH]nc1OCc1ccccc1,-1%,1%,-15%,-24%
COc1nn(Cc2ccc(-c3ccccc3C#N)cc2)cc1C(=O)O,1%,-5%,-3%,-10%
N#Cc1ccccc1-c1ccc(Cn2cc(C(=O)O)c(OCc3ccccc3)n2)cc1,-4%,-5%,-3%,-10%
COc1nn(C)cc1C(=O)O,-5%,-7%,-10%,-10%
Cn1cc(C(=O)O)c(OCc2ccccc2)n1,-5%,-4%,-4%,2%
C=CCn1cc(C(=O)O)c(OC)n1,5%,3%,6%,1%
O=C(O)c1cn(Cc2nn[nH]n2)nc1OCc1ccccc1,-2%,0%,-7%,-7%
COc1nn(CC=C(C)C)cc1C(=O)O,-8%,3%,-11%,-3%
N#Cc1ccccc1-c1ccc(COc2n[nH]cc2C(=O)O)cc1,0%,-7%,-5%,-11%
COC(=O)CCn1cc(C(=O)O)c(OCc2ccccc2)n1,-13%,-3%,-3%,-7%
CCOC(=O)Cn1cc(C(=O)O)c(OCc2ccccc2)n1,0%,-8%,-3%,-6%
COc1[nH]ncc1C(=O)O,-4%,-19%,-8%,-20%
Cn1cc(C(=O)O)c(=O)[nH]1,-12%,0%,-16%,-12%
O=C(CCn1cc(C(=O)O)c(OCc2ccccc2)n1)Nc1ccc(Cl)cc1,-19%,-16%,-19%,-10%
CCOC(=O)CCCn1cc(C(=O)O)c(OCc2ccccc2)n1,-1%,-1%,-6%,-3%
O=C(O)c1c[nH]nc1O,7%,-12%,2%,-9%
O=C(O)c1cn(Cc2ccccc2)nc1OCc1ccccc1,-14%,-6%,-9%,-5%
CN(C)C(=N)NC(=N)N [METFORMIN],-24%,,-24%,
